Experimental data from PubChem BioAssay AID1963873 (Molecular Pharmacology Branch, DTP, NCI, 2024).

Test system: 276233-004-R-J1-PDC KRAS spheroids with HUVEC/MSC, viability
Test: Anticancer human tumor 276233-004-R-J1-PDC patient-derived colon adenocarcinoma cell line growth inhibition [KRAS2]
Conditions: for IC50: curve of first compound; for viability, T/C: stronger effect = lower value
Text: Multicellular complex tumor spheroid response to RAS pathway inhibitors in combination with a targeted agents in patient-derived cell lines with oncogenic KRAS variants from multiple cancer types
A high-throughput screen of multi-cell type tumor spheroids was designed to identify active combinations of targeted small molecules and KRAS pathway inhibitors. Complex spheroids include a stromal component modeled by human endothelial cells (HUVEC) and fibroblasts modeled by human mesenchymal stem cells (MSCs). The concentration ranges selected for each drug and investigational agent were based upon clinically achievable concentrations if the clinical Cmax of the agent was known.
Compounds. The drugs and investigational agents: BI-3406 (NSC825286), BAY-293 (NSC824723), batoprotafib (TNO155; NSC825523), sotorasib (AMG 510; NSC818433), MRTX1257 (NSC819558), elimusertib (BAY 1895344; NSC800525), molibresib (GSK525762; NSC774829), temuterkib (LY3214996; NSC803410), venetoclax (NSC766270), alisertib (NSC759677), olaparib (NSC753686), talazoparib (NSC767125), erdafitinib (NSC781556), ipatasertib (NSC767898), cabozantinib (NSC761068), nintedanib (NSC756659), abemaciclib (NSC768073), docetaxel (NSC628503), trametinib (NSC758246), and sapanisertib (NSC764658) were obtained from the National Cancer Institute (NCI) Developmental Therapeutics Program Chemical Repository. The FDA-approved anticancer drug set is available from the Developmental Therapeutics Program. […] The stock solutions were prepared in dimethyl sulfoxide (DMSO, Sigma-Aldrich, St. Louis, MO, cat. D2650) at 800-fold the tested concentration and stored at -70 degrees C prior to their use. All drugs and investigational agents were tested over a range starting from a high concentration at or near the clinical Cmax and decreasing in half-log increments. If the clinical Cmax for an agent had not been determined, the highest concentration tested was 10 microM.
Cell Culture. All cells were maintained in an incubator at 37 degrees C and 5% CO2 with 95% humidity. The PDC lines were cultured according to standard operating procedures established by the NCI PDMR (https://pdmr.cancer.gov/sops/default.htm). Briefly, all PDCs were thawed and cultured in Matrigel-coated flasks prepared with a working solution of 1X Ham's F-12 nutrient mix, without supplementation (Invitrogen, Waltham, MA, cat. 11765054), 100 U/mL penicillin-streptomycin (Invitrogen, cat. 15140122), and 2.5% Matrigel (Corning Inc., Corning, NY, cat. 354248) for the first three passages. All PDCs were cultured in complete DMEM/F-12 media containing advanced DMEM/F-12 (Invitrogen, cat. 12634028), 4.9% defined fetal bovine serum, heat inactivated (HyClone Laboratories Inc., Logan, UT, cat. SH30070.03HI), 389 ng/mL hydrocortisone (Sigma-Aldrich, cat. H4001), 9.7 ng/mL human EGF recombinant protein (Invitrogen, cat. PHG0313), 23.4 microg/mL adenine (Sigma-Aldrich, cat. A2786), 97.3 U/mL penicillin-streptomycin (Invitrogen, cat. 15140122), 1.9 mM L-glutamine (Invitrogen, cat. 25030081), and 9.7 microM Y-27632 dihydrochloride (Tocris Bioscience, Bristol, United Kingdom, cat. 1254). The PDCs were cultured in complete DMEM/F12 media without 9.7 microM Y-27632 dihydrochloride for at least two passages prior to the screen. The established cell line HOP-62 was cultured in RPMI 1640 medium, HEPES (Invitrogen, cat. 22400105) with 10% defined fetal bovine serum (HyClone Laboratories Inc., cat. SH30070.03) and 2 mM L-glutamine (Invitrogen, cat. 25030081). The pooled donor HUVEC were cultured in endothelial cell growth medium 2 (PromoCell, Heidelberg, Germany, cat. C-22011) and the hMSC were cultured in mesenchymal stem cell growth medium 2 (PromoCell, cat. C-28009). For all experiments, HUVEC and hMSC were used at passages </=5, while the malignant cell lines were used at passages </=15. […]

[1] = second compound 0.1 µM, first compound 0.0316 µM
[2] = second compound 0.1 µM, first compound 0.1 µM
[3] = second compound 0.316 µM, first compound 0.0316 µM
[4] = second compound 0.316 µM, first compound 0.1 µM
[5] = second compound 1 µM, first compound 0.0316 µM
[6] = second compound 1 µM, first compound 0.1 µM
[7] = second compound 3.16 µM, first compound 0.0316 µM
[8] = second compound 3.16 µM, first compound 0.1 µM
[9] = second compound 10 µM, first compound 0.0316 µM
[10] = second compound 10 µM, first compound 0.1 µM
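Note: cells exposed to agents for seven days before viability read.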
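Throughout, for viability, T/C: 100% = DMSO vehicle control wells and lower values mean fewer viable cells.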

With `CC(C)n1nc(-c2ccc3oc(N)nc3c2)c2c(N)ncnc21` + C=CC(=O)N1CCN(c2nc(=O)n(-c3c(C)ccnc3C(C)C)c3nc(-c4c(O)cccc4F)c(F)cc23)C(C)C1 the IC50 (second compound 0.1 µM) was > 0.1 µM, the IC50 (second compound 0.316 µM) was 0.0271 µM and the IC50 (second compound 1 µM) was 0.0295 µM. The IC50 (second compound 3.16 µM) was > 0.1 µM, the IC50 (second compound 10 µM) was > 0.1 µM and the viability, T/C (second compound 0.1 µM, first compound 0.000316 µM) was 88.4%. The viability, T/C (second compound 0.1 µM, first compound 0.001 µM) was 91.7%, the viability, T/C (second compound 0.1 µM, first compound 0.00316 µM) was 64.8% and the viability, T/C (second compound 0.1 µM, first compound 0.01 µM) was 63.4%. It also gave a viability, T/C [1] of 50.8%, a viability, T/C [2] of 56.2% and a viability, T/C (second compound 0.316 µM, first compound 0.000316 µM) of 105%. It also gave a viability, T/C (second compound 0.316 µM, first compound 0.001 µM) of 94.3%, a viability, T/C (second compound 0.316 µM, first compound 0.00316 µM) of 76.6% and a viability, T/C (second compound 0.316 µM, first compound 0.01 µM) of 57.2%. It also gave a viability, T/C [3] of 45.4%, a viability, T/C [4] of 49.8% and a viability, T/C (second compound 1 µM, first compound 0.000316 µM) of 94.4%. The viability, T/C (second compound 1 µM, first compound 0.001 µM) was 86.8%, the viability, T/C (second compound 1 µM, first compound 0.00316 µM) was 105% and the viability, T/C (second compound 1 µM, first compound 0.01 µM) was 64.2%. For the same molecule, the viability, T/C [5] was 48.4%, the viability, T/C [6] was 49.7% and the viability, T/C (second compound 3.16 µM, first compound 0.000316 µM) was 87%. It also gave a viability, T/C (second compound 3.16 µM, first compound 0.001 µM) of 80.4%, a viability, T/C (second compound 3.16 µM, first compound 0.00316 µM) of 75.8% and a viability, T/C (second compound 3.16 µM, first compound 0.01 µM) of 59.2%. For the same molecule, the viability, T/C [7] was 51%, the viability, T/C [8] was 51.5% and the viability, T/C (second compound 10 µM, first compound 0.000316 µM) was 88.2%. It also gave a viability, T/C (second compound 10 µM, first compound 0.001 µM) of 84.9%, a viability, T/C (second compound 10 µM, first compound 0.00316 µM) of 67.8% and a viability, T/C (second compound 10 µM, first compound 0.01 µM) of 72%. The viability, T/C [9] was 54.9% and the viability, T/C [10] was 58%.

`CC1(C)CCC(CN2CCN(c3ccc(C(=O)NS(=O)(=O)c4ccc(NCC5CCOCC5)c([N+](=O)[O-])c4)c(Oc4cnc5[nH]ccc5c4)c3)CC2)=C(c2ccc(Cl)cc2)C1` + C=CC(=O)N1CCN(c2nc(=O)n(-c3c(C)ccnc3C(C)C)c3nc(-c4c(O)cccc4F)c(F)cc23)C(C)C1 was tested, and the IC50 (second compound 0.1 µM) was 8.94 µM, the IC50 (second compound 0.316 µM) was 9.58 µM and the IC50 (second compound 1 µM) was 8.59 µM. The IC50 (second compound 3.16 µM) was 9.15 µM, the IC50 (second compound 10 µM) was > 10 µM and the viability, T/C [1] was 84.2%. The viability, T/C [2] was 105%, the viability, T/C (second compound 0.1 µM, first compound 0.316 µM) was 97.6% and the viability, T/C (second compound 0.1 µM, first compound 1 µM) was 93.6%. It also gave a viability, T/C (second compound 0.1 µM, first compound 3.16 µM) of 107%, a viability, T/C (second compound 0.1 µM, first compound 10 µM) of 44.9% and a viability, T/C [3] of 98.4%. For the same molecule, the viability, T/C [4] was 108%, the viability, T/C (second compound 0.316 µM, first compound 0.316 µM) was 104% and the viability, T/C (second compound 0.316 µM, first compound 1 µM) was 105%. For the same molecule, the viability, T/C (second compound 0.316 µM, first compound 3.16 µM) was 92.2%, the viability, T/C (second compound 0.316 µM, first compound 10 µM) was 47.9% and the viability, T/C [5] was 92.8%. The viability, T/C [6] was 108%, the viability, T/C (second compound 1 µM, first compound 0.316 µM) was 91.4% and the viability, T/C (second compound 1 µM, first compound 1 µM) was 109%. The viability, T/C (second compound 1 µM, first compound 3.16 µM) was 84.8%, the viability, T/C (second compound 1 µM, first compound 10 µM) was 44.7% and the viability, T/C [7] was 80.1%. The viability, T/C [8] was 96.9%, the viability, T/C (second compound 3.16 µM, first compound 0.316 µM) was 88.7% and the viability, T/C (second compound 3.16 µM, first compound 1 µM) was 102%. For the same molecule, the viability, T/C (second compound 3.16 µM, first compound 3.16 µM) was 89.6%, the viability, T/C (second compound 3.16 µM, first compound 10 µM) was 46.5% and the viability, T/C [9] was 96.6%. It also gave a viability, T/C [10] of 73.2%, a viability, T/C (second compound 10 µM, first compound 0.316 µM) of 69.3% and a viability, T/C (second compound 10 µM, first compound 1 µM) of 84.2%. For the same molecule, the viability, T/C (second compound 10 µM, first compound 3.16 µM) was 81.1% and the viability, T/C (second compound 10 µM, first compound 10 µM) was 57%.
